Reference: patent US12331026B2 (NiKang Therapeutics, Inc., priority 2022, dated 2025)

The compounds below were run against T1, CDK2 (Homo sapiens, UniProt P24941) (assay: Phospho-RB measurement in OVCAR3 cells (HTRF phospho-RB S807/811)). Conditions: phosphorylation of RB protein at S807/811, HTRF, 24 h compound treatment, 0.3 to 10,000 nM, read-out: pRb (uM).
T1 construct: endogenous in cells; host or cells: OVCAR3 cells
Format: cell-based
How it was run: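 IC50 values come from four-parameter logistic fits of the DMSO-normalised 665/620 nm TR-FRET ratio for phospho-RB (S807/811). Antibody detection ran 4 h at room temperature.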

| Structure (SMILES) | IC50 [µM] |
| --- | --- |
| O=S1(=O)CC2(CC(Nc3nccc(-c4sc(N5C6CCC5CN(C5CCOC5)C6)nc4-c4cccc(NS(=O)(=O)c5c(F)cccc5F)c4F)n3)C2)C1 (stereo not shown) [Example 44, N-(3-(5-(2-((2,2-dioxido-2-thiaspiro[3.3]heptan-6-yl)amino)-pyrimidin-4-yl)-2-(3-(tetrahydrofuran-3-yl)-3,8-diazabicyclo-[3.2.1]octan-8-yl)thiazol-4-yl)-2-fluorophenyl)-2,6-difluoro-benzenesulfonamide] | 0.66 |
| CN1CC2CCC(C1)N2c1nc(-c2cccc(NS(=O)(=O)c3c(F)cccc3F)c2F)c(-c2ccnc(NC3CC4(C3)CS(=O)(=O)C4)n2)s1 [Example 135, N-(3-(5-(2-((2,2-dioxido-2-thiaspiro[3.3]heptan-6-yl)amino)-pyrimidin-4-yl)-2-(3-methyl-3,8-diazabicyclo[3.2.1]octan-8-yl)thiazol-4-yl)-2-fluorophenyl)-2,6-difluorobenzenesulfonamide] | 0.07 |
| C[C@@H]1CNC[C@@H](C)N1c1nc(-c2cccc(NS(=O)(=O)c3c(F)cccc3F)c2F)c(-c2ccnc(NC3CC4(C3)CS(=O)(=O)C4)n2)s1 [Example 59, N-(3-(2-((2R,6R)-2,6-dimethylpiperazin-1-yl)-5-(2-((2,2-dioxido-2-thiaspiro[3.3]heptan-6-yl)amino)pyrimidin-4-yl)thiazol-4-yl)-2-fluorophenyl)-2,6-difluorobenzenesulfonamide] | 3.01 |
| O=S1(=O)CC2(CC(Nc3nccc(-c4sc(C56CC(C(F)(F)F)(C5)C6)nc4-c4cccc(NS(=O)(=O)c5c(Cl)cccc5C(F)(F)F)c4F)n3)C2)C1 [Example 91, 2-chloro-N-(3-(5-(2-((2,2-dioxido-2-thiaspiro[3.3]heptan-6-yl)amino)pyrimidin-4-yl)-2-(3-(trifluoromethyl)bicyclo-[1.1.1]pentan-1-yl)thiazol-4-yl)-2-fluorophenyl)-6-(trifluoromethyl)benzenesulfonamide] | 0.15 |
| CC1(C#N)CC(N2CC3CCC(C2)N3c2nc(-c3cccc(NS(=O)(=O)c4c(F)cccc4F)c3F)c(-c3ccnc(NC4CC5(C4)CS(=O)(=O)C5)n3)s2)C1 (stereo not shown) [Example 49, N-(3-(2-(3-(3-cyano-3-methylcyclobutyl)-3,8-diazabicyclo-[3.2.1]octan-8-yl)-5-(2-((2,2-dioxido-2-thiaspiro[3.3]heptan-6-yl)amino)pyrimidin-4-yl)thiazol-4-yl)-2-fluorophenyl)-2,6-difluorobenzenesulfonamide] | 1.13 |
| C[C@H]1CN(C)C[C@H](C)N1c1nc(-c2cccc(NS(=O)(=O)c3c(F)cccc3C(F)(F)F)c2F)c(-c2ccnc(N[C@H]3[C@@H]4CS(=O)(=O)C[C@@H]43)n2)s1 [Example 124, N-(3-(5-(2-(((1R,5S,6r)-3,3-dioxido-3-thiabicyclo[3.1.0]hexan-6-yl)amino)pyrimidin-4-yl)-2-((2S,6S)-2,4,6-trimethylpiperazin-1-yl)thiazol-4-yl)-2-fluorophenyl)-2-fluoro-6-(trifluoromethyl)benzenesulfonamide] | 0.04 |
| O=S1(=O)C[C@H]2C[C@H](Nc3nccc(-c4sc(C56CC(C5)C6)nc4-c4cccc(NS(=O)(=O)c5c(F)cccc5F)c4F)n3)C[C@H]2C1 [Example 152, N-(3-(2-(bicyclo[1.1.1]pentan-1-yl)-5-(2-(((3aR,5s,6aS)-2,2-dioxidohexahydro-1H-cyclopenta[c]thiophen-5-yl)amino)pyrimidin-4-yl)thiazol-4-yl)-2-fluorophenyl)-2,6-difluorobenzenesulfonamide] | 0.15 |
| C[C@H]1COC[C@H](C)N1c1nc(-c2cccc(NS(=O)(=O)c3c(F)cccc3F)c2F)c(-c2ccnc(N[C@H]3[C@@H]4CS(=O)(=O)C[C@@H]43)n2)s1 [Example 101, N-(3-(2-((3S,5S)-3,5-dimethylmorpholino)-5-(2-(((1R,5S,6r)-3,3-dioxido-3-thiabicyclo[3.1.0]hexan-6-yl)amino)pyrimidin-4-yl)thiazol-4-yl)-2-fluorophenyl)-2,6-difluorobenzenesulfonamide] | 0.17 |
| O=S1(=O)CC2(CC(Nc3nccc(-c4sc(C56CC(C5)C6)nc4-c4cccc(NS(=O)(=O)c5c(Cl)cccc5Cl)c4F)n3)C2)C1 [Example 31, N-(3-(2-(bicyclo[1.1.1]pentan-1-yl)-5-(2-((2,2-dioxido-2-thiaspiro[3.3]heptan-6-yl)amino)pyrimidin-4-yl)thiazol-4-yl)-2-fluorophenyl)-2,6-dichlorobenzenesulfonamide] | 0.07 |
| CC1(C)CCN1c1nc(-c2cccc(NS(=O)(=O)c3c(F)cccc3C(F)(F)F)c2F)c(-c2ccnc(N[C@@H]3[C@@H]4CS(=O)(=O)C[C@@H]43)n2)s1 [Example 120, N-(3-(2-(2,2-dimethylazetidin-1-yl)-5-(2-(((1R,5S,6s)-3,3-dioxido-3-thiabicyclo[3.1.0]hexan-6-yl)amino)pyrimidin-4-yl)thiazol-4-yl)-2-fluorophenyl)-2-fluoro-6-(trifluoromethyl)benzenesulfonamide] | 0.29 |
| C[C@H]1CN(C)C[C@H](C)N1c1nc(-c2cccc(NS(=O)(=O)c3c(F)cccc3C(F)(F)F)c2F)c(-c2ccnc(NC3CC4(C3)CS(=O)(=O)C4)n2)s1 [Example 70, N-(3-(5-(2-((2,2-dioxido-2-thiaspiro[3.3]heptan-6-yl)amino)-pyrimidin-4-yl)-2-((2S,6S)-2,4,6-trimethylpiperazin-1-yl)thiazol-4-yl)-2-fluorophenyl)-2-fluoro-6-(trifluoromethyl)benzenesulfonamide] | 0.03 |
| CS(=O)(=O)[C@H]1CC[C@H](Nc2nccc(-c3sc(C45CC(C4)C5)nc3-c3cccc(NS(=O)(=O)c4c(F)cccc4C(F)(F)F)c3F)n2)CC1 [Example 36] | 0.09 |
| O=S1(=O)CC2(CC(Nc3nccc(-c4sc(C56CC(CO)(C5)C6)nc4-c4cccc(NS(=O)(=O)c5c(F)cccc5F)c4F)n3)C2)C1 [Example 34, N-(3-(5-(2-((2,2-dioxido-2-thiaspiro[3.3]heptan-6-yl)amino)pyrimidin-4-yl)-2-(3-(hydroxymethyl)bicyclo[1.1.1]pentan-1-yl)thiazol-4-yl)-2-fluorophenyl)-2,6-difluorobenzenesulfonamide] | 2.01 |
| CN1CC2CC(C1)N2c1nc(-c2cccc(NS(=O)(=O)c3c(F)cccc3F)c2F)c(-c2ccnc(NC3CC4(C3)CS(=O)(=O)C4)n2)s1 [Example 22, N-(3-(5-(2-((2,2-dioxido-2-thiaspiro[3.3]heptan-6-yl)amino)pyrimidin-4-yl)-2-(3-methyl-3,6-diazabicyclo[3.1.1]heptan-6-yl)thiazol-4-yl)-2-fluorophenyl)-2,6-difluorobenzenesulfonamide] | 0.44 |
| O=S1(=O)CC2(CC(Nc3nccc(-c4sc(C56CCC(CC5)C6)nc4-c4cccc(NS(=O)(=O)c5c(F)cccc5F)c4F)n3)C2)C1 [Example 9, N-(3-(2-(bicyclo[2.2.1]heptan-1-yl)-5-(2-((2,2-dioxido-2-thiaspiro[3.3]heptan-6-yl)amino)pyrimidin-4-yl)thiazol-4-yl)-2-fluorophenyl)-2,6-difluorobenzenesulfonamide] | 0.1 |
| O=S1(=O)CC2(CC(Nc3nccc(-c4sc(C56CC(C(F)(F)F)(C5)C6)nc4-c4cccc(NS(=O)(=O)c5c(F)cccc5C(F)(F)F)c4F)n3)C2)C1 [Example 88, N-(3-(5-(2-((2,2-dioxido-2-thiaspiro[3.3]heptan-6-yl)amino)-pyrimidin-4-yl)-2-(3-(trifluoromethyl)bicyclo[1.1.1]pentan-1-yl)thiazol-4-yl)-2-fluorophenyl)-2-fluoro-6-(trifluoromethyl)-benzenesulfonamide] | 0.09 |
